Legend:
HEK293T cells = experiment: LC/MS/MS detection of ubiquitinated compound from cell lysates (Ub pull-down); assay type: cell-based, human; conditions: 15 μM, 1 h
Experimental: Samples for LC/MS/MS analyses of the ubiquitinated inhibitors from reconstituted HUWE1^FL-driven reactions were prepared by in-solution trypsin (Mass Spec Grade, Promega) digestion, instead of the gel-based LysC digestion procedure described above. […] In both cases, the samples were reduced and alkylated with 10 mM TCEP and 20 mM iodoacetamide at 37 °C in the dark for 60 min. An equal mixture of Sera-Mag SpeedBeads with hydrophilic and hydrophobic surfaces (GE Healthcare; 1:1 mix (v/v)) was washed twice with water and added to the sample at 50:1(w/w) resin-to-protein ratio. […] The resulting peptides were then dried, dissolved in 5% ACN/0.1% FA (both v/v), and measured on a hybrid quadruple-Obitrap Exploris480 mass spectrometer (Thermo Fisher Scientific) coupled to an Ultimate 3000 UHPLC system (Thermo Fisher Scientific). […]
Sample preparation for LC/MS/MS detection of ubiquitinated compounds from cell lysates was performed according to the following workflow: HEK293T cells at 70% confluency were treated with 15 μM BI8626 or an equal volume of DMSO for 1 h. […] After 20 min incubation on a rotating wheel at 4 °C, the lysate was cleared by centrifugation, the total protein concentrations determined, and the sample (2.3 mg) diluted with 10 mM Tris (pH 7.5), 150 mM NaCl and 0.5 mM EDTA to a final volume of 1 mL. […]

[1] = biological target: T1, vinylthioether-linked HUWE1^HECT-Ub complex (Homo sapiens, UniProt Q7Z6Z7); experiment: Isothermal titration calorimetry (ITC) with HUWE1^HECT~Ub proxy; assay type: binding; conditions: 25 °C
T1 construct: The preparation of the vinylthioether-linked HUWE1^HECT-Ub complex was also previously described; made in house; host or cells: bacteria (components)
T1 sequence (Q7Z6Z7 4038-4374 limits assumed, other chains not shown): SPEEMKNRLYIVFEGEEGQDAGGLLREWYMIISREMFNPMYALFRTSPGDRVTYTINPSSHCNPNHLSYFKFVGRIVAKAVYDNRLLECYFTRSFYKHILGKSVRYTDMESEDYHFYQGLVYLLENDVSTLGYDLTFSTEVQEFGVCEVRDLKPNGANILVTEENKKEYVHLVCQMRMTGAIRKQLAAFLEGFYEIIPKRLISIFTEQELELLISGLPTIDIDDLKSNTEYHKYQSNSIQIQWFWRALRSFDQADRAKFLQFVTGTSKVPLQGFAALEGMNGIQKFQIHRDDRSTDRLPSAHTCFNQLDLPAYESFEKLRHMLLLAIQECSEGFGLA
Experimental: ITC was performed with an ITC200 calorimeter (MicroCal) at 25 °C. The proteins were dialyzed into 20 mM HEPES (pH 7.5), 150 mM NaCl, and 1 mM β-mercaptoethanol (β-ME) overnight. 600 μM HUWE1^HECT or HUWE1^HECT-Ub were applied to the cell and a 10-fold molar excess of BI8626 to the syringe (and vice versa). The reference cell was filled with buffer. Titration experiments included 1 injection of 1.5 μL, followed by 15 injections of 2.4 μL in 3-s intervals, with 150-s spacings between individual injections. The reference power was set to 12 μcal s^−1 and the stirring speed to 270 rpm. To control for instrument functionality, 5 mM CaCl2 were titrated into 0.4 mM EDTA in 10 mM MES (pH 5.6). Data were plotted with OriginPro v.2020b (OriginLab).

NCc1cccc(CNc2ncnc3c(N4CCN(Cc5ccccc5)CC4)ncnc23)c1 [BI8626]
Compound ubiquitination in cells (targeted MS/MS after Ub pull-down) (HEK293T cells): indeed ubiquitinated in cells
Interaction with the HUWE1^HECT~Ub proxy by ITC [1]: No binding was detected
